Data published in PubChem BioAssay (NCI).
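These data come from cells grown in 96-well plates and exposed to compound for 48 hours at five concentrations. GI50 marks 50% less growth. TGI denotes the concentration required for complete inhibition of growth.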

Tests used:
Experiment in all cases: growth of human tumour cells (NCI), 48 h
[1] = test system: SNB-75 CNS
[2] = test system: CAKI-1 renal
[3] = test system: 786-0 renal
[4] = test system: NCI-H226 lung
[5] = test system: COLO 205 colon
[6] = test system: SN12C renal
[7] = test system: DU-145 prostate
[8] = test system: CCRF-CEM leukemia
[9] = test system: PC-3 prostate
[10] = test system: SR leukemia
[11] = test system: M14 melanoma
[12] = test system: RPMI-8226 leukemia
[13] = test system: K-562 leukemia
[14] = test system: SF-539 CNS
[15] = test system: MCF7 breast
[16] = test system: EKVX NSCLC
[17] = test system: NCI-H460 lung
[18] = test system: MDA-MB-435
[19] = test system: TK-10 renal
[20] = test system: MALME-3M melanoma
[21] = test system: BT-549 breast
[22] = test system: HCC-2998 colon
[23] = test system: OVCAR-8 ovarian
[24] = test system: SK-MEL-28 melanoma
[25] = test system: HCT-116 colon
[26] = test system: HL-60(TB) leukemia
[27] = test system: A549 NSCLC
[28] = test system: HOP-92 NSCLC
[29] = test system: HCT-15 colon
[30] = test system: SW-620 colon
[31] = test system: SF-295 CNS
[32] = test system: SF-268 CNS
[33] = test system: ACHN renal
[34] = test system: SNB-19 CNS
[35] = test system: MDA-MB-231 breast
[36] = test system: SK-MEL-5 melanoma
[37] = test system: U251 CNS
[38] = test system: LOX IMVI melanoma
[39] = test system: HOP-62 NSCLC
[40] = test system: SK-MEL-2 melanoma
[41] = test system: HT29 colon
[42] = test system: UACC-257 melanoma
[43] = test system: IGROV1 ovarian
[44] = test system: MOLT-4 leukemia
[45] = test system: KM12 colon
[46] = test system: NCI/ADR-RES ovarian
[47] = test system: OVCAR-5 ovarian
[48] = test system: OVCAR-4 ovarian
[49] = test system: NCI-H522 lung
[50] = test system: NCI-H23 lung
[51] = test system: UACC-62 melanoma
[52] = test system: HS 578T breast
[53] = test system: UO-31 renal
[54] = test system: A498 renal
[55] = test system: SK-OV-3 ovarian
[56] = test system: OVCAR-3 ovarian
[57] = test system: RXF 393 renal

Cc1c(CN)c(C)c(CN)c(C)c1CN
TGI [1]: > 100000 nM
TGI [2]: > 100000 nM
TGI [3]: > 100000 nM
TGI [4]: > 100000 nM
TGI [5]: > 100000 nM
TGI [6]: > 100000 nM
TGI [7]: > 100000 nM
TGI [8]: > 100000 nM
TGI [9]: > 100000 nM
TGI [10]: > 100000 nM
TGI [11]: > 100000 nM
TGI [12]: > 100000 nM
TGI [13]: > 100000 nM
TGI [14]: > 100000 nM
TGI [15]: > 100000 nM
TGI [16]: > 100000 nM
TGI [17]: > 100000 nM
TGI [18]: > 100000 nM
TGI [19]: > 100000 nM
TGI [20]: > 100000 nM
TGI [21]: > 100000 nM
TGI [22]: > 100000 nM
TGI [23]: > 100000 nM
TGI [24]: > 100000 nM
TGI [25]: > 100000 nM
TGI [26]: > 100000 nM
TGI [27]: > 100000 nM
TGI [28]: > 100000 nM
TGI [29]: > 100000 nM
TGI [30]: > 100000 nM
TGI [31]: > 100000 nM
TGI [32]: > 100000 nM
TGI [33]: > 100000 nM
TGI [34]: > 100000 nM
TGI [35]: > 100000 nM
TGI [36]: > 100000 nM
TGI [37]: > 100000 nM
TGI [38]: > 100000 nM
TGI [39]: > 100000 nM
TGI [40]: > 100000 nM
TGI [41]: > 100000 nM
TGI [42]: > 100000 nM
TGI [43]: > 100000 nM
TGI [44]: > 100000 nM
TGI [45]: > 100000 nM
TGI [46]: > 100000 nM
TGI [47]: > 100000 nM
TGI [48]: > 100000 nM
TGI [49]: > 100000 nM
TGI [50]: 94500 nM

Nc1c(C(=O)Nc2ccccc2)sc2nc3c(cc12)C(O)CCC3 (stereo not drawn)
GI50 [1]: 278 nM
TGI [1]: > 100000 nM
GI50 [2]: 349 nM
TGI [2]: > 100000 nM
GI50 [3]: 623 nM
TGI [3]: > 100000 nM
GI50 [4]: 1270 nM
TGI [4]: > 100000 nM
GI50 [5]: 295 nM
TGI [5]: 2630 nM
GI50 [6]: 559 nM
TGI [6]: > 100000 nM
GI50 [7]: 355 nM
TGI [7]: > 100000 nM
GI50 [8]: 323 nM
TGI [8]: > 100000 nM
GI50 [9]: 325 nM
TGI [9]: > 100000 nM
GI50 [10]: 168 nM
TGI [10]: > 100000 nM
GI50 [11]: 281 nM
TGI [11]: > 100000 nM
GI50 [12]: 372 nM
TGI [12]: > 100000 nM
GI50 [13]: 196 nM
TGI [13]: > 100000 nM
GI50 [14]: 225 nM
TGI [14]: 604 nM
GI50 [15]: 241 nM
TGI [15]: > 100000 nM
GI50 [17]: 355 nM
TGI [17]: > 100000 nM
GI50 [19]: > 100000 nM
TGI [19]: > 100000 nM
GI50 [20]: 256 nM
TGI [20]: > 100000 nM
GI50 [21]: 1240 nM
TGI [21]: > 100000 nM
GI50 [51]: 444 nM
TGI [51]: > 100000 nM
GI50 [22]: 1070 nM
TGI [22]: > 79300 nM
GI50 [23]: 471 nM
TGI [23]: > 100000 nM
GI50 [25]: 488 nM
TGI [25]: > 100000 nM
GI50 [26]: 232 nM
TGI [26]: 706 nM
GI50 [52]: 362 nM
TGI [52]: > 100000 nM
GI50 [27]: 406 nM
TGI [27]: > 100000 nM
GI50 [53]: 689 nM
TGI [53]: > 100000 nM
GI50 [28]: 264 nM
TGI [28]: > 100000 nM
GI50 [29]: 336 nM
TGI [29]: > 100000 nM
GI50 [30]: 371 nM
TGI [30]: > 100000 nM
GI50 [31]: 297 nM
TGI [31]: > 100000 nM
GI50 [32]: 700 nM
TGI [32]: > 100000 nM
GI50 [54]: 273 nM
TGI [54]: > 100000 nM
GI50 [33]: 981 nM
TGI [33]: > 100000 nM
GI50 [34]: 577 nM
TGI [34]: > 100000 nM
GI50 [35]: 946 nM
TGI [35]: > 100000 nM
GI50 [36]: 407 nM
TGI [36]: 23900 nM
GI50 [37]: 362 nM
TGI [37]: > 100000 nM
GI50 [38]: 638 nM
TGI [38]: > 100000 nM
GI50 [39]: 455 nM
TGI [39]: > 100000 nM
GI50 [41]: 323 nM
GI50 [55]: 439 nM
TGI [55]: > 100000 nM
GI50 [56]: 344 nM
TGI [56]: > 100000 nM
GI50 [42]: > 100000 nM
TGI [42]: > 100000 nM
GI50 [43]: 650 nM
TGI [43]: > 100000 nM
GI50 [44]: 491 nM
TGI [44]: > 100000 nM
GI50 [45]: 440 nM
TGI [45]: > 100000 nM
GI50 [57]: 349 nM
TGI [57]: > 100000 nM
GI50 [48]: 3660 nM
TGI [48]: > 100000 nM
GI50 [49]: 280 nM
GI50 [50]: 665 nM
TGI [50]: > 100000 nM

O=C1N=C(c2c(-c3[nH]c(=O)c4ccc(Br)cc4c3O)c(O)c3ccccc3c2O)C(=O)c2cc(Br)ccc21
GI50 [1]: 261 nM
TGI [1]: 537 nM
GI50 [2]: 379 nM
TGI [2]: 1030 nM
GI50 [3]: 360 nM
TGI [3]: 805 nM
GI50 [4]: 335 nM
TGI [4]: 937 nM
GI50 [5]: > 16700 nM
TGI [5]: > 16700 nM
GI50 [6]: 359 nM
TGI [6]: 790 nM
GI50 [7]: 427 nM
TGI [7]: 1110 nM
GI50 [8]: 930 nM
TGI [8]: > 16700 nM
GI50 [10]: 944 nM
TGI [10]: > 16700 nM
GI50 [11]: 523 nM
TGI [11]: 1600 nM
GI50 [12]: > 3430 nM
TGI [12]: > 16700 nM
GI50 [13]: 593 nM
TGI [13]: > 16700 nM
GI50 [15]: 335 nM
TGI [15]: 1210 nM
GI50 [16]: 353 nM
TGI [16]: 1530 nM
GI50 [17]: 417 nM
TGI [17]: 1020 nM
GI50 [18]: 1030 nM
TGI [18]: 4740 nM
GI50 [19]: 484 nM
TGI [19]: 1180 nM
GI50 [20]: 367 nM
TGI [20]: 770 nM
GI50 [21]: 422 nM
TGI [21]: 1350 nM
TGI [51]: > 16700 nM
GI50 [22]: 347 nM
TGI [22]: 832 nM
GI50 [23]: 526 nM
TGI [23]: > 16700 nM
GI50 [24]: 375 nM
TGI [24]: 926 nM
GI50 [25]: 378 nM
TGI [25]: 1000 nM
GI50 [26]: > 16700 nM
TGI [26]: > 16700 nM
GI50 [27]: 577 nM
TGI [27]: > 16700 nM
GI50 [53]: 287 nM
TGI [53]: 638 nM
GI50 [28]: > 16700 nM
TGI [28]: > 16700 nM
GI50 [29]: 306 nM
TGI [29]: 672 nM
GI50 [54]: 4.4 nM
TGI [54]: > 16700 nM
GI50 [33]: 333 nM
TGI [33]: 908 nM
GI50 [34]: 611 nM
TGI [34]: > 16700 nM
GI50 [35]: 585 nM
TGI [35]: > 16700 nM
GI50 [36]: 479 nM
TGI [36]: 1470 nM
GI50 [37]: 370 nM
TGI [37]: 798 nM
GI50 [38]: 281 nM
TGI [38]: 554 nM
GI50 [39]: 292 nM
TGI [39]: 660 nM
TGI [40]: > 4940 nM
GI50 [41]: > 8040 nM
TGI [41]: > 16700 nM
GI50 [55]: 388 nM
TGI [55]: 1220 nM
GI50 [56]: 388 nM
TGI [56]: 932 nM
GI50 [42]: 480 nM
TGI [42]: 1110 nM
GI50 [43]: 493 nM
TGI [43]: 1410 nM
GI50 [44]: > 3710 nM
TGI [44]: > 16700 nM
GI50 [45]: 566 nM
TGI [45]: 1970 nM
GI50 [57]: 296 nM
TGI [57]: 646 nM
GI50 [46]: 363 nM
TGI [46]: 1080 nM
GI50 [47]: > 8370 nM
TGI [47]: > 16700 nM
GI50 [49]: 359 nM
TGI [49]: 1110 nM
GI50 [50]: 300 nM
TGI [50]: 785 nM
